Source: patent US20240246968A1, “SMALL MOLECULE INHIBITORS OF KRAS G12C MUTANT” (Merck Sharp & Dohme LLC, priority 2021, published 2024)

Experiments:
[1] = target: T1, interaction between recombinant K-Ras4B G12C mutant protein and cRAF RAS-binding domain (cRAF-RBD) (Homo sapiens, UniProt P01116, G12C); test: Inhibitory activity on interaction between KRAS G12C and cRAF (Alpha technology); format: biochemical; settings: GMPPNP-bound KRAS G12C incubated with compound at 25° C. for 1 hour, then cRAF-RBD; Alpha signal
T1 construct: made in house; host or cells: E. coli
Summary of the method: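 Alpha readout of cRAF-RBD (aa 50-132) binding to KRAS G12C (aa 1-169) after 1.5 h RT, following 1 h, 25° C compound preincubation with GMPPNP-bound protein (pH 7.5 Tris, 1 mM MgCl2, TCEP, Tween 20). IC50 fitted from titrations, with GDP-bound KRAS as 100% and DMSO as 0% inhibition.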

MIA PaCa-2 cells = test: Growth inhibition activity on KRAS-G12C mutant cell line (MIA PaCa-2), CellTiter-Glo 3D; format: cell-based, human; settings: Homo sapiens, MIA PaCa-2, 72 h, MIA PaCa-2, 3-day culture with compound
Summary of the method: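 Luminescence readout (CellTiter-Glo 3D) after 3 days of compound treatment at 37 °C, 5% CO2, 0.2% final DMSO, gave % growth inhibition versus no-compound wells, from which IC50 (nM) was derived; cells had been plated in 10% FBS RPMI1640 one day before dosing.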

[2] = target: Gppcp-bound recombinant K-Ras4B G12C mutant protein (amino acids 1-169, C51S/C80L/C118S) (Homo sapiens, UniProt P01116, C118S/C51S/C80L/G12C); test: KRASG12C binding assay (LC-MS, compound binding rate); settings: test compound final concentration 0.5 μM, 25° C., 1 hour
Summary of the method: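 Covalent adduct formation measured by deconvoluted intact-mass LC-MS after 1 h at 25 °C with compound at 0.5 μM final and 50 nM Gppcp-loaded KRAS G12C (residues 1-169, C51S/C80L/C118S). Buffer: TBS, 0.1 mM TCEP, 0.25 mM MgCl2, 50 μM Gppcp. Binding % = one-molecule adduct/(unbound + all adducts), binned A ≥80, B 60–80, C 40–60, D 20–40, E <20.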

Structure (SMILES) | IC50 [1] [nM] | IC50 (MIA PaCa-2 cells) [nM] | binding rate [2]
Cc1nc2cc(-c3cccn4c(C(=O)c5cc(F)c(NC(=O)/C=C/CNC(C)(C)C)c(F)c5)ccc34)c(C(F)(F)F)cc2n1C [Example 25, (E)-4-(tert-butylamino)-N-(4-(8-(1,2-dimethyl-6-(trifluoromethyl)-1H-benzo[d]imidazol-5-yl)indolizine-3-carbonyl)-2,6-difluorophenyl)but-2-enamide] | 79 | 100 | A (A binding rate of 80% or more is rated “A”)
Cc1cc2c(ncn2C)c(C)c1-c1cccn2c(C(=O)c3cc(F)c(NC(=O)/C=C/CNC(C)(C)C)c(F)c3)ccc12 [Example 29, (E)-4-(tert-butylamino)-N-(2,6-difluoro-4-(8-(1,4,6-trimethyl-1H-benzo[d]imidazol-5-vi)indolizine-3-carbonyl)phenyl)but-2-enamide] | 90 | 120 | A (A binding rate of 80% or more is rated “A”)
COc1nc2c(cc1-c1cccn3c(C(=O)c4cc(F)c(NC(=O)/C=C/CN[C@H]5CC[C@H](OC)CC5)c(F)c4)ccc13)nc(C)n2C [Example 33, (E)-N-(2,6-difluoro-4-(8-(5-methoxy-2,3-dimethyl-3H-imidazo[4,5-b]pyridin-6-yl)indolizine-3-carbonyl)phenyl)-4-(((1r,4r)-4-methoxycyclohexyl)amino)but-2-enamide] | 75 | 140 | A (A binding rate of 80% or more is rated “A”)
CO[C@H]1CC[C@H](NC/C=C/C(=O)Nc2c(F)cc(C(=O)c3ccc4c(-c5c(C#N)cc6c(nc(C)n6C)c5Cl)cccn34)cc2F)CC1 [Example 37, (E)-N-(4-(8-(4-chloro-6-cyano-1,2-dimethyl-1H-benzo[d]imidazol-5-yl)indolizine-3-carbonyl)-2,6-difluorophenyl)-4-(((1r,4r)-4-methoxycyclohexyl)amino)but-2-enamide] | 87 | 240 | A (A binding rate of 80% or more is rated “A”)
CO[C@H]1CC[C@H](NC/C=C/C(=O)Nc2c(F)cc(C(=O)c3ccc4c(-c5c(C6CC6)cc6c(nc(C)n6C)c5Cl)cccn34)cc2F)CC1 [Example 38] | 77 | 78 | A (A binding rate of 80% or more is rated “A”)
COc1cc(-c2cncn2C)cc(Cl)c1-c1cccn2c(C(=O)c3cc(F)c(NC(=O)/C=C/CN[C@H]4CC[C@H](OC)CC4)c(F)c3)ccc12 [Example 42, (E)-N-(4-(8-(2-chloro-6-methoxy-4-(1-methyl-1H-imidazol-5-yl)phenyl)indolizine-3-carbonyl)-2,6-difluorophenyl)-4-(((1r,4r)-4-methoxycyclohexyl)amino)but-2-enamide] | 85 | 610 | A (A binding rate of 80% or more is rated “A”)
C#Cc1cc2c(nc(C)n2C)c(Cl)c1-c1cccn2c(C(=O)c3cc(F)c(NC(=O)/C=C/CN[C@H]4CC[C@H](OC)CC4)c(F)c3)ccc12 [Example 43, (E)-N-(4-(8-(4-chloro-6-ethynyl-1,2-dimethyl-1H-benzo[d]imidazol-5-yl)indolizine-3-carbonyl)-2,6-difluorophenyl)-4-(((1r,4r)-4-methoxycyclohexyl)amino)but-2-enamide] | 88 | 160 | A (A binding rate of 80% or more is rated “A”)
CO[C@H]1CC[C@H](NC/C=C/C(=O)Nc2c(F)cc(C(=O)c3c[nH]c4c(-c5cc6nc(C)n(C)c6cc5C(F)(F)F)cccc34)cc2F)CC1 [Example 45, (E)-N-(4-(7-(1,2-dimethyl-6-(trifluoromethyl)-1H-benzo[d]imidazol-5-yl)-1H-indole-3-carbonyl)-2,6-difluorophenyl)-4-(((1r,4r)-4-methoxycyclohexyl)amino)but-2-enamide] | 76 | 67 | A (A binding rate of 80% or more is rated “A”)

The next compounds have a lower IC50 [1] than those just listed; values first:

IC50 [1] [nM] | IC50 (MIA PaCa-2 cells) [nM] | Structure (SMILES) | binding rate [2]
23 | 520 | CO[C@H]1CC[C@H](NC/C=C/C(=O)Nc2c(F)cc(C(=O)c3ccc4c(-c5cc6ncn(C)c6cc5O)cccn34)cc2F)CC1 [Example 23, (E)-N-(2,6-difluoro-4-(8-(6-hydroxy-1-methyl-1H-benzo[d]imidazol-5-yl)indolizine-3-carbonyl)phenyl)-4-(((1r,4r)-4-methoxycyclohexyl)amino)but-2-enamide] | A (A binding rate of 80% or more is rated “A”)
54 | 54 | Cc1nc2cc(-c3cccn4c(C(=O)c5cc(F)c(NC(=O)/C=C/CNC6CCOCC6)c(F)c5)ccc34)c(C(F)(F)F)cc2n1C [Example 24, (E)-N-(4-(8(1,2-dimethyl-6-(trifluoromethyl)-1H-benzo[d]imidazol-5-yl)indolizine-3-carbonyl)-2,6-difluorophenyl)-4-((tetrahydro-2H-pyran-4-yl)amino)but-2-enamide] | A (A binding rate of 80% or more is rated “A”)
62 | 82 | Cc1nc2cc(-c3cccn4c(C(=O)c5cc(F)c(NC(=O)/C=C/CNC6(C)CCOCC6)c(F)c5)ccc34)c(C(F)(F)F)cc2n1C [Example 26] | A (A binding rate of 80% or more is rated “A”)
62 | 64 | CO[C@H]1CC[C@H](NC/C=C/C(=O)Nc2c(F)cc(C(=O)c3ccc4c(-c5c(Br)cc6c(nc(C)n6C)c5Cl)cccn34)cc2F)CC1 [Example 31, (E)-N-(4-(8(6-bromo-4-chloro-1,2-dimethyl-1H-benzo[d]imidazol-5-yl)indolizine-3-carbonyl)-2,6-difluorophenyl)-4-(((1r,4r)-4-methoxycyclohexyl)amino)but-2-enamide] | A (A binding rate of 80% or more is rated “A”)
22 | 23 | COc1cc2c(nc(C)n2C)c(F)c1-c1cccn2c(C(=O)c3cc(F)c(NC(=O)/C=C/CN[C@H]4CC[C@H](OC)CC4)c(F)c3)ccc12 [Example 44] | A (A binding rate of 80% or more is rated “A”)
30 | 24 | COc1cc2c(nc(C)n2C)c(F)c1-c1cccn2c(C(=O)c3cc(F)c(NC(=O)/C=C/CNC(C)(C)C)c(F)c3)ccc12 [Example 46, (E)-4-(tert-butylamino)-N-(2,6-difluoro-4-(8-(4-fluoro-6-methoxy-1,2-dimethyl-1H-benzo[d]imidazol-5-yl)indolizine-3-carbonyl)phenyl)but-2-enamide] | A (A binding rate of 80% or more is rated “A”)
57 | 120 | CO[C@H]1CC[C@H](NC/C=C/C(=O)Nc2c(F)cc(C(=O)c3c(C)nc4c(-c5cc6nc(C)n(C)c6cc5C(F)(F)F)cccn34)cc2F)CC1 [Example 51, (E)-N-(4-(8-(1,2-dimethyl-6-(trifluoromethyl)-1H-benzo[d]imidazol-5-yl)-2-methylimidazo[1,2-a]pyridine-3-carbonyl)-2,6-difluorophenyl)-4-(((1r,4r)-4-methoxycyclohexyl)amino)but-2-enamide] | A (A binding rate of 80% or more is rated “A”)
